Data from patent EP0982027A1, “Taxoid derivatives for treating abnormal cell proliferation of the brain” (RHONE-POULENC RORER S.A., priority 1998, dated 2000).
Where two headings read alike, the source gives them in different places.

Experiment: in vivo
Parameters: species or system female C3H/HeN mice
Conditions: mouse; for concentration at 6 h: 6h after dose; for concentration at 8 h: 8h after dose; for concentration at 14 h: 14h after dose; for concentration at 24 h: 24 h after dose; for concentration at 48 h: 48 h after dose; for concentration at 5 min: 5 min after dose; for concentration at 0.25 h: 15 min after dose; for concentration at 0.5 h: 0.5h after dose; for concentration at 0.75 h: 0.75h after dose; for concentration at 1 h: 1h after dose; for Vd: read-out: Vdss; for AUC(0-inf): mean level data
Experimental: Groups of female C3H/HeN mice received the product by the intravenous route as a bolus at a dose level of 40 mg.kg^-1 equivalent to 120 mg.m^-2. Blood and brain samples were obtained from all dosed animals sacrificed at intervals up to 72 hours post dose. Brain and corresponding plasma samples have been assayed for product Ia content by an LC-MS/MS assay.
• Formulation: 2.25 mg.ml^-1 solution containing 5 % Polysorbate 80, 5 % ethanol and 90 % of an aqueous 5 % glucose solution. […]
• Sampling : Blood by cardiac puncture and liver and brain by dissection after CO2 sacrifice • Sample Times : at 2, 5, 15, 30, 45 minutes, 1, 2, 4, 6, 8, 14, 24, 48 and 72 hours post dose.
Whole blood was collected into heparinised tubes and corresponding plasma samples were obtained by centrifugation and frozen immediately at -20°C. Tissues were blotted, weighed and frozen immediately at -20°C. All samples were dispatched frozen for analysis. Upon receipt, samples were stored frozen at approximately -18°C pending analysis.
• Detection: LC-MS/MS (Sciex API III plus) in turbo-ionspray mode
The following MS conditions were applied:
Column: 75 x 4.6 mm Supelcosil ABZ plus (3 µm). Mobile phase: Acetonitrile/methanol/ammonium acetate (10mM); 40/25/35 v/v/v. Flow rate : 1 ml.min^-1. Temperature : Ambient. Extraction : Plasma: Add 100 µl of acetonitrile to sample (50 µl). Vortex, centrifuge, remove supernatant, add 100 µl of mobile phase and inject 150 µl. Brain : Add 100 µl of acetonitrile to homogenised sample (100 mg of a 1:1 w/w brain with water homogenate) and vortex. Add 1ml of diethyl ether, vortex, centrifuge, remove organic layer and dry under N2. Reconstitute in 200 µl of mobile phase and inject 150 µl. Calibration standards: Plasma : Nine at concentrations of 5, 10, 20, 50, 100, 200, 300, 400 & 500 ng.ml^-1 (product Ia). Prepared by adding suitable aliquots of the product (concentrations = 0.1, 1 or 10 µg.ml^-1) in ethanol to 0.5 ml aliquots of mouse plasma. Each sample was vortexed following drug addition; a 50 µl aliquot was then removed for assay. Brain : Eleven at concentrations of 10, 20, 30, 100, 200, 300, 400, 500, 1000, 2500 & 5000 ng.g^-1 in homogenised mouse brain (1:1 w/w brain with water). Prepared by adding suitable aliquots of the product (concentrations = 1, 10 or 100 µg.ml^-1) in ethanol to 0.5, 1, 3 or 4 g of homogenised mouse brain. Each sample was vortexed following drug addition and a 100 mg aliquot was then removed for assay. Retention times: Drug; product Ia: ∼2.3 min. Extraction efficiency : Plasma : ca.58 % at 200 ng.ml^-1. Brain : ca.41 % at 500 ng.g^-1 and 39 % at 1000 ng.g^-1.
A biexponential equation was fitted to the profiles using an interactive linear least-square algorithm as part of the SIPHAR package.
AUC0-∞: Area under the plasma or brain concentration versus time curve from t=0 (start of infusion) to infinity. Initial T1/2: Initial (distribution) half-life. Terminal T1/2: Terminal (elimination) half-life (should be regarded as an estimate only being dependent on sampling frequency in the terminal phase and assay sensitivity). ClT: Total plasma clearance. Vdss: Volume of distribution at steady state. n.a.: Not applicable.

[1] = brain, iv, 40 mg/kg, 40 mg.kg^-1 i.v., MEAN, read-out: Brain product Ic concentration
[2] = brain, iv, 40 mg/kg, 40 mg.kg^-1 i.v., individual animals IV1-IV4, read-out: Brain product Ic concentration
[3] = plasma, iv, 40 mg/kg, 40 mg.kg^-1 i.v., MEAN, read-out: Plasma product Ic concentration
[4] = plasma, iv, 40 mg/kg, 40 mg.kg^-1 i.v., individual animals IV1-IV4, read-out: Plasma product Ic concentration
[5] = plasma, iv, 40 mg/kg, Plasma+, calculated from values ≥ l.o.d. of 4 ng.ml^-1, 40 mg.kg^-1 i.v.

In the case of CO[C@H]1C(=O)[C@]2(C)[C@@H](OC)C[C@H]3OC[C@@]3(OC(C)=O)[C@H]2[C@H](OC(=O)c2ccccc2)[C@]2(O)C[C@H](OC(=O)[C@H](O)[C@@H](NC(=O)OC(C)(C)C)c3ccccc3)C(C)=C1C2(C)C [product Ia, 4α-acetoxy-2α-benzoyloxy-5β,20-epoxy-1β-hydroxy-7β,10β-dimethoxy-9-oxo-11-taxen-13α-yl (2R,3S)-3 tert-butoxycarbonylamino-2-hydroxy-3-phenylpropionate], the concentration at 4 h (brain, iv, 40 mg/kg, 40 mg.kg^-1 i.v., 4h after dose, individual animals IV1-IV4, read-out: Brain product Ic concentration) was 7910 ng/g, the concentration at 6 h [1] was 6430 ng/g and the concentration at 8 h [1] was 8250 ng/g. For the same compound, the concentration at 8 h [2] was 9070 ng/g, the concentration at 14 h [1] was 9130 ng/g and the concentration at 14 h [2] was 9620 ng/g. For the same compound, the concentration at 24 h [1] was 8670 ng/g, the concentration at 24 h [2] was 7900 ng/g and the concentration at 48 h [1] was 7720 ng/g. It also gave a concentration at 48 h [2] of 6660 ng/g, a concentration at 72 h (brain, iv, 40 mg/kg, 40 mg.kg^-1 i.v., 72 h after dose, MEAN, read-out: Brain product Ic concentration) of 5250 ng/g and a concentration at 72 h (brain, iv, 40 mg/kg, 40 mg.kg^-1 i.v., 72 h after dose, individual animals IV1-IV4, read-out: Brain product Ic concentration) of 5900 ng/g. The concentration at 2 min (brain, iv, 40 mg/kg, 40 mg.kg^-1 i.v., at 2 mins, read-out: brain level at the first sampling time) was 7900 ng/g, the concentration at 72 h (brain, iv, 40 mg/kg, 40 mg.kg^-1 i.v., at 72h, read-out: brain concentration at the last sampling time) was 5300 ng/g and the concentration at 2 min (plasma, iv, 40 mg/kg, 40 mg.kg^-1 i.v., 2 min after dose, MEAN, read-out: Plasma product Ic concentration) was 46900 ng/mL. It also gave a concentration at 2 min (plasma, iv, 40 mg/kg, 40 mg.kg^-1 i.v., 2 min after dose, individual animals IV1-IV4, read-out: Plasma product Ic concentration) of 53000 ng/mL, a concentration at 5 min [3] of 34300 ng/mL and a concentration at 5 min [4] of 36700 ng/mL. For the same compound, the concentration at 0.25 h [3] was 20500 ng/mL, the concentration at 0.25 h [4] was 20500 ng/mL and the concentration at 0.5 h [3] was 10400 ng/mL. For the same compound, the concentration at 0.5 h [4] was 10800 ng/mL, the concentration at 0.75 h [3] was 9090 ng/mL and the concentration at 0.75 h [4] was 7130 ng/mL. For the same compound, the concentration at 1 h [3] was 6550 ng/mL, the concentration at 1 h [4] was 6020 ng/mL and the concentration at 4 h (plasma, iv, 40 mg/kg, 40 mg.kg^-1 i.v., 4h after dose, MEAN, read-out: Plasma product Ic concentration) was 962 ng/mL. It also gave a concentration at 4 h (plasma, iv, 40 mg/kg, 40 mg.kg^-1 i.v., 4h after dose, individual animals IV1-IV4, read-out: Plasma product Ic concentration) of 1070 ng/mL, a concentration at 6 h [3] of 362 ng/mL and a concentration at 6 h [4] of 449 ng/mL. It also gave a concentration at 8 h [3] of 188 ng/mL, a concentration at 8 h [4] of 204 ng/mL and a concentration at 14 h [3] of 56 ng/mL. For the same compound, the concentration at 14 h [4] was 65 ng/mL, the concentration at 24 h [3] was 16 ng/mL and the concentration at 48 h [3] was 2 ng/mL. For the same compound, the concentration at 4 h (plasma, iv, 40 mg/kg, 40 mg.kg^-1 i.v., within 4h, read-out: plasma level) was < 1000 ng/mL, the half-life (plasma, iv, 40 mg/kg, Plasma#, calculated from values ≥ b.l.q. of 20 ng.ml^-1, 40 mg.kg^-1 i.v., read-out: Initial T1/2 (converted)) was 12 min and the half-life (plasma, iv, 40 mg/kg, Plasma#, calculated from values ≥ b.l.q. of 20 ng.ml^-1, 40 mg.kg^-1 i.v., read-out: Terminal T1/2 (converted)) was 120 min. It also gave a Vd (plasma, iv, 40 mg/kg, Plasma#, calculated from values ≥ b.l.q. of 20 ng.ml^-1, 40 mg.kg^-1 i.v.) of 2.4 L/kg, an AUC(0-inf) [5] of 30000 ng·h/mL and a half-life (plasma, iv, 40 mg/kg, Plasma+, calculated from values ≥ l.o.d. of 4 ng.ml^-1, 40 mg.kg^-1 i.v., read-out: Initial T1/2 (converted)) of 42 min. The half-life (plasma, iv, 40 mg/kg, Plasma+, calculated from values ≥ l.o.d. of 4 ng.ml^-1, 40 mg.kg^-1 i.v., read-out: Terminal T1/2 (converted)) was 372 min, the Vd [5] was 1.9 L/kg and the AUC(0-inf) (plasma, iv, 40 mg/kg, calculated from values ≥ b.l.q. of 20 ng.ml^-1, 40 mg.kg^-1 i.v.) was 29800 ng·h/mL. For the same compound, the half-life (plasma, iv, 40 mg/kg, plasma, 40 mg.kg^-1 i.v., read-out: initial half-life) was ≤ 42 min, the “levels in the brain relative to those in the plasma” value (on the basis of AUC0-∞ values, 40 mg.kg^-1 i.v.) was “about twenty times” and the concentration at 24 h (plasma, iv, 40 mg.kg^-1 i.v., individual animals IV1-IV4, values flagged blq (below limit of accurate quantification, 20 ng.ml^-1), read-out: Plasma product Ic concentration) was 18 ng/mL. The concentration at 48 h (plasma, iv, 40 mg.kg^-1 i.v., individual animals IV1-IV4, blq = below 20 ng.ml^-1, n.d. = not detected (≤ l.o.d. of 4 ng.ml^-1), read-out: Plasma product Ic concentration) was 4 ng/mL, the Cmax at 2 min (plasma, iv, 40 mg.kg^-1 i.v., peak at 2 minutes, read-out: plasma peak level (mean)) was 46900 ng/mL and the “penetration of the blood brain barrier” value (post-i.v. administration) was “readily penetrate the blood brain barrier”.
